The text below walks through data of ChEMBL document CHEMBL1148989, “Meroterpenoid MAPKAP (MK2) inhibitors isolated from the indonesian marine sponge Acanthodendrilla sp” (J Nat Prod, 2004).

The experiment deals with MAP kinase-activated protein kinase 2 (Homo sapiens, UniProt P49137). The experiment is described as follows: Inhibition of MK2.
Chain of MAP kinase-activated protein kinase 2 (P49137 whole entry): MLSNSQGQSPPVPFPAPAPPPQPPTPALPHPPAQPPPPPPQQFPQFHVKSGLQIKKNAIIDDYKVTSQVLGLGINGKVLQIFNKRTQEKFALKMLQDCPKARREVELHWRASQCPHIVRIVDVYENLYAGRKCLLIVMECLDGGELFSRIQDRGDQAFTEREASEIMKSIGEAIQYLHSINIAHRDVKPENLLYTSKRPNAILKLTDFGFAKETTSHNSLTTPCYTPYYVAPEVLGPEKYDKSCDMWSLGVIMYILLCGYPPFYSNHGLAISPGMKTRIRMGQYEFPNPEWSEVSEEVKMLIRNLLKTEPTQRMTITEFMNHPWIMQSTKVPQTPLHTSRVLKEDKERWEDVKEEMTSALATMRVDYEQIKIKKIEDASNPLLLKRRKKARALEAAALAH

The term IC50 denotes the concentration that gives 50% inhibition. Lower therefore signals greater potency in that assay. Consider `CC1=CC[C@H]2[C@@](C)(CC[C@H]3C(C)(C)CCC[C@]23C)[C@@H]1Cc1cc(C(=O)O)ccc1O`, for which the IC50 turned out to be 20 µM.
The compound `CC1=C(CC/C(C)=C/Cc2cc(C(=O)O)ccc2O)[C@@]2(C)CCCC(C)(C)[C@@H]2CC1` registered an IC50 of 9.6 µM.
